Measurements reported in article PMC12203311, “Design, synthesis, in silico and in vitro evaluation of pyrrole–indole hybrids as dual tubulin and aromatase inhibitors with potent anticancer activities” (RSC Advances, 2025).

Key:
NCI-H226 = test: NCI60 five-dose screen; format: cell-based; conditions: Homo sapiens, NCI-H226, NSC lung cancer; for CC50: read-out: LC50 (the source's name)
SNB-75 = test: NCI60 five-dose screen; format: cell-based; conditions: Homo sapiens, SNB-75, CNS cancer; for CC50: read-out: LC50 (the source's name)
UACC-257 = test: NCI60 five-dose screen; format: cell-based; conditions: Homo sapiens, UACC-257, melanoma; for CC50: read-out: LC50 (the source's name)
HCC-2998 = test: NCI60 five-dose screen; format: cell-based; conditions: Homo sapiens, HCC-2998, colon cancer; for CC50: read-out: LC50 (the source's name)
CAKI-1 = test: NCI60 five-dose screen; format: cell-based; conditions: Homo sapiens, CAKI-1, renal cancer; for CC50: read-out: LC50 (the source's name)
SK-MEL-5 = test: NCI60 five-dose screen; format: cell-based, human; conditions: Homo sapiens; for CC50: SK-MEL-5, SK-MEL-5, melanoma, read-out: LC50 (the source's name); for GI50: SK-MEL-5, melanoma
LOX IMVI = test: NCI60 five-dose screen; format: cell-based; conditions: Homo sapiens, melanoma; for CC50: read-out: LC50 (the source's name)
HT29 = test: NCI60 five-dose screen; format: cell-based; conditions: Homo sapiens, HT-29, HT29, colon cancer; for CC50: read-out: LC50 (the source's name)
RPMI-8226 = test: NCI60 five-dose screen; format: cell-based; conditions: Homo sapiens, RPMI-8226, leukemia; for CC50: read-out: LC50 (the source's name)
OVCAR-4 = test: NCI60 five-dose screen; format: cell-based; conditions: Homo sapiens, OVCAR-4, ovarian cancer; for CC50: read-out: LC50 (the source's name)
786-0 = test: NCI60 five-dose screen; format: cell-based; conditions: Homo sapiens, 786-0, renal cancer; for CC50: read-out: LC50 (the source's name)
DU-145 = test: NCI60 five-dose screen; format: cell-based; conditions: Homo sapiens, DU-145, prostate cancer; for CC50: read-out: LC50 (the source's name)
MDA-MB-435 = test: NCI60 five-dose screen; format: cell-based, human; conditions: Homo sapiens; for CC50: MDA-MB-435, MDA-MB-435, melanoma, read-out: LC50 (the source's name); for GI50: MDA-MB-435, melanoma
SNB-19 = test: NCI60 five-dose screen; format: cell-based; conditions: Homo sapiens, SNB-19, CNS cancer; for CC50: read-out: LC50 (the source's name)
NCI-H460 = test: NCI60 five-dose screen; format: cell-based; conditions: Homo sapiens, NCI-H460, NSC lung cancer; for CC50: read-out: LC50 (the source's name)
Human CYP19 (aromatase) = biological target: T1, Human CYP19 (aromatase) (Homo sapiens, UniProt P11511); test: Aromatase inhibition assay (DBF fluorometric substrate); format: biochemical; conditions: active defined as IC50 < 12.5 µM
T1 construct: purchased GENTEST, Woburn, MA 456260; host or cells: baculovirus/insect cells
T1 sequence (P11511 1-503): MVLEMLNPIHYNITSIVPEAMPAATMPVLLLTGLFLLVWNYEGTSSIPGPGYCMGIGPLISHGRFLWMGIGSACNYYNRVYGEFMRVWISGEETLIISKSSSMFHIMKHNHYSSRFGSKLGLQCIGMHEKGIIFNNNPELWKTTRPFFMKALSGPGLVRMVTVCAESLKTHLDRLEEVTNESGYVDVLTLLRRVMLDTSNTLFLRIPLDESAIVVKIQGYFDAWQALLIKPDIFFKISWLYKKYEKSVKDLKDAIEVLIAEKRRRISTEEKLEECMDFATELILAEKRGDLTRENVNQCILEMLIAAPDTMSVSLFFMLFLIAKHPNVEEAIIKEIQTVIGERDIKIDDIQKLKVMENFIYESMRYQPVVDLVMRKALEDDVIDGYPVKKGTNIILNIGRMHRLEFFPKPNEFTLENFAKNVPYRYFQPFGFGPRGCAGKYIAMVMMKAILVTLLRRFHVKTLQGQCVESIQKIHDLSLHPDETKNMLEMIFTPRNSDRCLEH
Procedure, shortened: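 Supersomes expressing human CYP19 plus oxidoreductase (baculovirus/insect cell) with fluorometric substrate DBF; cofactor mixture pre-incubated 10 min at 37 °C, reaction run 30 min at 37 °C, stopped with NaOH. Fluorescence read at ex 490/em 530 nm.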

OVCAR-8 = test: NCI60 five-dose screen; format: cell-based; conditions: Homo sapiens, OVCAR-8, ovarian cancer; for CC50: read-out: LC50 (the source's name)
OVCAR-5 = test: NCI60 five-dose screen; format: cell-based; conditions: Homo sapiens, OVCAR-5, ovarian cancer; for CC50: read-out: LC50 (the source's name)
K-562 = test: NCI60 five-dose screen; format: cell-based; conditions: Homo sapiens, K562, K-562, leukemia; for CC50: read-out: LC50 (the source's name)
CCRF-CEM = test: NCI60 five-dose screen; format: cell-based; conditions: Homo sapiens, leukemia; for CC50: read-out: LC50 (the source's name)
NCI-H522 = test: NCI60 five-dose screen; format: cell-based; conditions: Homo sapiens, NCI-H522, NSC lung cancer; for CC50: read-out: LC50 (the source's name)
HCT-116 = test: NCI60 five-dose screen; format: cell-based; conditions: Homo sapiens, HCT-116, colon cancer; for CC50: read-out: LC50 (the source's name)
ACHN = test: NCI60 five-dose screen; format: cell-based; conditions: Homo sapiens, renal cancer; for CC50: read-out: LC50 (the source's name)

Work on `CCc1ccc(/C=N/NC(=O)c2[nH]c3ccc(Br)cc3c2-c2ccccc2)[nH]1` [Derivative 3s, (E)-5-Bromo-N′-((5-ethyl-1H-pyrrol-2-yl)methylene)-3-phenyl-1H-indole-2-carbohydrazide] yielded a GI50 (NCI-H226) of 506 nM, a CC50 (NCI-H226) of 32300 nM and a GI50 (SNB-75) of 285 nM. For the same compound, the CC50 (SNB-75) was 54100 nM, the GI50 (UACC-257) was 1320 nM and the CC50 (UACC-257) was 64700 nM. For the same compound, the GI50 (HCC-2998) was 1450 nM, the CC50 (HCC-2998) was 35100 nM and the GI50 (CAKI-1) was 1040 nM. It also gave a CC50 (CAKI-1) of 56200 nM, a CC50 (SK-MEL-5) of 10100 nM and a GI50 (SK-MEL-5) of 381 nM. It also gave a GI50 (LOX IMVI) of 722 nM, a CC50 (LOX IMVI) of 36100 nM and a GI50 (HT29) of 298 nM. The CC50 (HT29) was 33800 nM, the GI50 (RPMI-8226) was 375 nM and the CC50 (RPMI-8226) was > 100000 nM. It also gave a GI50 (OVCAR-4) of 2410 nM, a CC50 (OVCAR-4) of 53700 nM and a GI50 (786-0) of 801 nM. The CC50 (786-0) was 47400 nM, the GI50 (DU-145) was 418 nM and the CC50 (DU-145) was 36700 nM. The CC50 (MDA-MB-435) was 34000 nM, the GI50 (MDA-MB-435) was 227 nM and the GI50 (SNB-19) was 1820 nM. It also gave a CC50 (SNB-19) of 51800 nM, a GI50 (NCI-H460) of 396 nM and a CC50 (NCI-H460) of 43500 nM. For the same compound, the IC50 (Human CYP19 (aromatase)) was 4600 ± 500 nM, the GI50 (OVCAR-8) was 337 nM and the CC50 (OVCAR-8) was 25200 nM. The GI50 (OVCAR-5) was 573 nM, the CC50 (OVCAR-5) was 38700 nM and the GI50 (K-562) was 338 nM. The CC50 (K-562) was > 100000 nM, the GI50 (CCRF-CEM) was 375 nM and the CC50 (CCRF-CEM) was > 100000 nM. The GI50 (NCI-H522) was 183 nM, the CC50 (NCI-H522) was 28000 nM and the GI50 (HCT-116) was 325 nM. It also gave a CC50 (HCT-116) of 31900 nM, a GI50 (ACHN) of 861 nM and a CC50 (ACHN) of 36600 nM.
Work on `CCc1c[nH]c(/C=N/NC(=O)c2[nH]c3ccc(Br)cc3c2-c2ccccc2)c1` [Derivative 3t, (E)-5-Bromo-N′-((4-ethyl-1H-pyrrol-2-yl)methylene)-3-phenyl-1H-indole-2-carbohydrazide] yielded a GI50 (NCI-H226) of 330 nM, a CC50 (NCI-H226) of 28000 nM and a GI50 (SNB-75) of 440 nM. It also gave a CC50 (SNB-75) of 37800 nM, a GI50 (UACC-257) of 1230 nM and a CC50 (UACC-257) of 41300 nM. The GI50 (HCC-2998) was 342 nM, the CC50 (HCC-2998) was 30400 nM and the GI50 (CAKI-1) was 1050 nM. It also gave a CC50 (CAKI-1) of 34400 nM, a CC50 (SK-MEL-5) of 6960 nM and a GI50 (SK-MEL-5) of 279 nM. For the same compound, the GI50 (LOX IMVI) was 427 nM, the CC50 (LOX IMVI) was 8270 nM and the GI50 (HT29) was 308 nM. The CC50 (HT29) was 21000 nM, the GI50 (RPMI-8226) was 343 nM and the CC50 (RPMI-8226) was > 100000 nM. The GI50 (OVCAR-4) was 2170 nM, the CC50 (OVCAR-4) was 43000 nM and the GI50 (786-0) was 646 nM. For the same compound, the CC50 (786-0) was 38500 nM, the GI50 (DU-145) was 380 nM and the CC50 (DU-145) was 39500 nM. The CC50 (MDA-MB-435) was 38700 nM, the GI50 (MDA-MB-435) was 230 nM and the GI50 (SNB-19) was 396 nM. The CC50 (SNB-19) was 41300 nM, the GI50 (NCI-H460) was 346 nM and the CC50 (NCI-H460) was 20200 nM. For the same compound, the IC50 (Human CYP19 (aromatase)) was 4700 ± 500 nM, the GI50 (OVCAR-8) was 316 nM and the CC50 (OVCAR-8) was 26000 nM. The GI50 (OVCAR-5) was 337 nM, the CC50 (OVCAR-5) was 37200 nM and the GI50 (K-562) was 348 nM. The CC50 (K-562) was > 100000 nM, the GI50 (CCRF-CEM) was 368 nM and the CC50 (CCRF-CEM) was > 100000 nM. For the same compound, the GI50 (NCI-H522) was 206 nM, the CC50 (NCI-H522) was 29500 nM and the GI50 (HCT-116) was 385 nM. The CC50 (HCT-116) was 40300 nM, the GI50 (ACHN) was 628 nM and the CC50 (ACHN) was 35500 nM.
